In PubChem BioAssay AID330 (DTP/NCI, 2004):
Values joined by “and” are separate entries in the source; they are usually repeats but may differ in a detail not shown here. Equal entries are not always repeated. Toxic doses and inconclusive results are not listed. Rule for the calls: active = survival T/C of 150% or more; inactive = T/C below 125% in these data.

Test system: P388 leukemia ip, CD2F1 mice, survival T/C
Experiment: NCI In Vivo Anticancer Drug Screen. Data for tumor model P388 Leukemia (intraperitoneal) in CD2F1 (CDF1) mice
Settings: endpoint: median survival time, higher = longer survival
How it was run: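 Mice carrying the transplanted tumor received test compound or vehicle. Survival was recorded in each group, and the value is the treated-group measurement divided by that of the vehicle-treated control group.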

[1] = dose: 50.0 mg/kg/injection, schedule: Q01DX005 (ip), vehicle: Klucel (hydroxypropylcellulose) (HPC)
[2] = dose: 100.0 mg/kg/injection, schedule: Q01DX001 (ip), vehicle: Klucel (hydroxypropylcellulose) (HPC)
[3] = dose: 200.0 mg/kg/injection, schedule: Q01DX001 (ip), vehicle: Klucel (hydroxypropylcellulose) (HPC)
[4] = dose: 400.0 mg/kg/injection, schedule: Q01DX001 (ip), vehicle: Klucel (hydroxypropylcellulose) (HPC)
[5] = dose: 50.0 mg/kg/injection, schedule: Q01DX009 (ip), vehicle: saline
[6] = dose: 100.0 mg/kg/injection, schedule: Q01DX001 (ip), vehicle: saline with Tween-80
[7] = dose: 200.0 mg/kg/injection, schedule: Q01DX001 (ip), vehicle: saline with Tween-80
[8] = dose: 400.0 mg/kg/injection, schedule: Q01DX001 (ip), vehicle: saline with Tween-80

Measured: T/C

O=P(c1ccccc1)(c1ccccc1)c1ccccc1OCCOCCOc1ccccc1P(=O)(c1ccccc1)c1ccccc1
inactive: [1] 100 % of control | dose: 100.0 mg/kg/injection, schedule: Q01DX005 (ip), vehicle: Klucel (hydroxypropylcellulose) (HPC) 91 % of control | dose: 200.0 mg/kg/injection, schedule: Q01DX005 (ip), vehicle: Klucel (hydroxypropylcellulose) (HPC) 99 % of control

O=C1C(O)C(c2ccccc2)c2ccccc2N1c1ccccc1 (stereo not drawn)
inactive: [2] 95 % of control | [3] 96 % of control | [4] 89 % of control

O=C1C=CC2(CCCCC2)CC1
inactive: dose: 25.0 mg/kg/injection, schedule: Q04DX003 (ip), vehicle: Klucel (hydroxypropylcellulose) (HPC) 97 % of control | dose: 50.0 mg/kg/injection, schedule: Q04DX003 (ip), vehicle: Klucel (hydroxypropylcellulose) (HPC) 97 % of control | dose: 100.0 mg/kg/injection, schedule: Q04DX003 (ip), vehicle: Klucel (hydroxypropylcellulose) (HPC) 95 % of control

O=C1C(Cl)=C(Nc2ccccc2)C(O)N1c1ccccc1 (stereo not drawn)
inactive: dose: 50.0 mg/kg/injection, schedule: Q01DX005 (ip), vehicle: saline with Tween-80 103 % of control | dose: 100.0 mg/kg/injection, schedule: Q01DX005 (ip), vehicle: saline with Tween-80 96 % of control | dose: 200.0 mg/kg/injection, schedule: Q01DX005 (ip), vehicle: saline with Tween-80 92 % of control

Cc1ccccc1NC(=O)OCCCl
inactive: dose: 60.0 mg/kg/injection, schedule: Q01DX005 (ip), vehicle: saline with Tween-80 100 % of control | dose: 120.0 mg/kg/injection, schedule: Q01DX005 (ip), vehicle: saline with Tween-80 100 % of control | dose: 240.0 mg/kg/injection, schedule: Q01DX005 (ip), vehicle: saline with Tween-80 97 % of control

Oc1cncc2ncccc12
inactive: [5] 106 % of control | dose: 100.0 mg/kg/injection, schedule: Q01DX009 (ip), vehicle: saline 100 % of control | dose: 200.0 mg/kg/injection, schedule: Q01DX009 (ip), vehicle: saline 100 % of control

Cn1c([N+](=O)[O-])cnc1CSC(=S)N1CCN(C(=S)SCc2ncc([N+](=O)[O-])n2C)CC1
inactive: dose: 50.0 mg/kg/injection, schedule: Q01DX009 (ip), vehicle: saline with Tween-80 99 % of control and 104 % of control and 96 % of control | dose: 100.0 mg/kg/injection, schedule: Q01DX009 (ip), vehicle: saline with Tween-80 101 % of control and 93 % of control and 95 % of control | dose: 200.0 mg/kg/injection, schedule: Q01DX009 (ip), vehicle: saline with Tween-80 102 % of control and 107 % of control and 92 % of control

CC1C2CCC3C4CC=C5CC(N(C)C)CCC5(C)C4CCC32CN1C (stereo not drawn)
inactive: dose: 12.5 mg/kg/injection, schedule: Q01DX005 (ip), vehicle: Klucel (hydroxypropylcellulose) (HPC) 105 % of control | dose: 12.5 mg/kg/injection, schedule: Q01DX005 (ip), vehicle: saline 94 % of control | dose: 25.0 mg/kg/injection, schedule: Q01DX005 (ip), vehicle: Klucel (hydroxypropylcellulose) (HPC) 105 % of control | dose: 25.0 mg/kg/injection, schedule: Q01DX005 (ip), vehicle: saline 94 % of control | dose: 25.0 mg/kg/injection, schedule: Q01DX009 (ip), vehicle: saline 105 % of control | [1] 103 % of control and 113 % of control | dose: 50.0 mg/kg/injection, schedule: Q01DX005 (ip), vehicle: saline 106 % of control and 107 % of control | [5] 88 % of control

O=C1C(CN2CCCC2)C(O)=C(c2ccccc2)N1c1ccccc1 (stereo not drawn)
inactive: [6] 102 % of control | [7] 92 % of control | [8] 92 % of control

COc1ccc(C2=C(Cl)C(=O)N(c3cccc(Cl)c3)C(=O)C2(Cl)Cl)cc1
inactive: dose: 100.0 mg/kg/injection, schedule: Q04DX002 (ip), vehicle: Klucel (hydroxypropylcellulose) (HPC) 100 % of control and 86 % of control (2×) | dose: 200.0 mg/kg/injection, schedule: Q04DX002 (ip), vehicle: Klucel (hydroxypropylcellulose) (HPC) 104 % of control and 91 % of control and 97 % of control | dose: 400.0 mg/kg/injection, schedule: Q04DX002 (ip), vehicle: Klucel (hydroxypropylcellulose) (HPC) 100 % of control and 122 % of control and 90 % of control | dose: 600.0 mg/kg/injection, schedule: Q04DX002 (ip), vehicle: Klucel (hydroxypropylcellulose) (HPC) 98 % of control and 109 % of control

Nc1nc2ccccc2n1/N=C/c1ccccc1[N+](=O)[O-]
inactive: [2] 90 % of control | [3] 100 % of control | [4] 98 % of control

CCCC(Sc1ccccc1)c1cc(OC)ccc1NC(C)=O (stereo not drawn)
inactive: [6] 100 % of control | [7] 100 % of control | [8] 93 % of control

c1ccc2ccccc2c1
inactive: dose: 50.0 mg/kg/injection, schedule: Q01DX009 (ip), vehicle: other 100 % of control | dose: 100.0 mg/kg/injection, schedule: Q01DX009 (ip), vehicle: other 104 % of control | dose: 200.0 mg/kg/injection, schedule: Q01DX009 (ip), vehicle: other 107 % of control

CCOc1ccc2nc3cc(N=Nc4cc5ccccc5[nH]4)ccc3c(N)c2c1
inactive: [6] 97 % of control | [7] 94 % of control | [8] 103 % of control
